This note sets out measurements from ChEMBL document CHEMBL1121493, “Folate analogues altered in the C9-N10 bridge region. 16. Synthesis and antifolate activity of 11-thiohomoaminopterin” (J Med Chem, 1980).

Experiment [1] concerns the target Reduced folate carrier (Homo sapiens). Briefly: Ability to compete with methotrexate transport in human HeLa cells was determined. The following applies: read-out: I50.
Experiment [2] relates to Enterococcus faecium. Description: The compound was tested for inhibition of growth of Streptococcus faecium (ATCC 8043) at 2.0 ng/ml. Format: functional.
Experiment [3] has as its target Dihydrofolate reductase (Lactobacillus casei, UniProt P00381). Briefly: Ability to inhibit Lactobacillus casei dihydrofolate reductase in vitro was determined.
Experiment [4] addresses T1, Thymidylate synthase (Lactobacillus casei, UniProt P00469).
T1 sequence (P00469 whole entry): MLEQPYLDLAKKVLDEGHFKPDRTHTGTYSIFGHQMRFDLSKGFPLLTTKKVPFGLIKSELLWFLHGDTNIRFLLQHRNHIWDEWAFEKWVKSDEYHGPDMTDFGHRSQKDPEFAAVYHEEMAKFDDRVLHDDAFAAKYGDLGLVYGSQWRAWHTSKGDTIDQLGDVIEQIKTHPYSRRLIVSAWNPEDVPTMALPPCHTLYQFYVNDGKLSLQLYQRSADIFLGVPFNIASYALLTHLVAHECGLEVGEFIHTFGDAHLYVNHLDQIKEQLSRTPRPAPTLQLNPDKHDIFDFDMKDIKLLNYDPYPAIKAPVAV
Briefly: Ability to inhibit Lactobacillus casei thymidylate synthase in vitro was determined. More on the design: species or system Lacticaseibacillus casei. The following applies: read-out: I50.

The subject of experiment [5] is Lacticaseibacillus casei. Briefly: (§1) The compound was tested for inhibition of growth of Lactobacillus casei (ATCC 7469) at 0.1 ng/ml. It counts as functional.
Experiment [6] deals with Reduced folate carrier (Homo sapiens). Briefly: Ability to compete with methotrexate transport in human HeLa cells was determined. The following applies: read-out: I50. The source holds these as a separate data set.
Experiment [7] has as its target T2, Dihydrofolate reductase (Homo sapiens, UniProt P00374).
T2 sequence (P00374 whole entry): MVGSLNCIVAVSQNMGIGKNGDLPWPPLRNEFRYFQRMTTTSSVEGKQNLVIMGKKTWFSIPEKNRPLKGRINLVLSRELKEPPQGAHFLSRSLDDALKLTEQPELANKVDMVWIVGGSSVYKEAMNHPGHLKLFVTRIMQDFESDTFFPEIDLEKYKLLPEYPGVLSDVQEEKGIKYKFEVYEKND
Briefly: Ability to inhibit human HeLa cell dihydrofolate reductase in vitro was determined.

Experiment [8] has as its system Lacticaseibacillus casei. The description is as §1. The following applies: read-out: I 50. Format: functional, organism-based.
Experiment [9] concerns Enterococcus faecium. Briefly: The compound was tested for inhibition of growth of Streptococcus faecium (ATCC 8043) at 0.1 ng/ml. Format: functional, organism-based. To be noted: read-out: I 50.
In experiment [10] the test system is Lacticaseibacillus casei. Briefly: The compound was tested for inhibition of growth of Lactobacillus casei at 0.1 ng/ml (ATCC 7469). To be noted: read-out: I 50. It counts as functional, organism-based.

Structures are written as SMILES. Converted amounts (≈) assume the structure as drawn.

Broadly, the inhibition is the share of the control response that was lost under treatment. Read a low inhibition as a response near the control.

Sequence of Dihydrofolate reductase (Lactobacillus casei, UniProt P00381) (P00381 whole entry): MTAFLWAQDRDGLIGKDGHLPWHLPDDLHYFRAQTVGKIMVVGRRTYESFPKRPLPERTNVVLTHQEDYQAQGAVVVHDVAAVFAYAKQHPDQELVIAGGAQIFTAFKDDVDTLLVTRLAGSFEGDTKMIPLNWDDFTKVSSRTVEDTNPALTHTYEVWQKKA

Consider `Nc1nc(N)c2nc(CSc3ccc(C(=O)NC(CCC(=O)O)C(=O)O)cc3)cnc2n1` (stereo unspecified), for which, in experiment [1], the IC50 was found to be 2700 nM.

In the case of `Nc1nc(N)c2nc(CCSc3ccc(C(=O)NC(CCC(=O)O)C(=O)O)cc3)cnc2n1` (stereo unspecified), in [2], the inhibition at 0.002 µg/mL came out at 50%. Also, the IC50 in [3] was 400 nM; in experiment [4] it was 60000 nM; in experiment [6], 25000 nM. Further, testing at 0.0001 µg/mL in [5] gave an inhibition of 50%.

In turn, `Nc1nc(N)c2nc(COc3ccc(C(=O)NC(CCC(=O)O)C(=O)O)cc3)cnc2n1` (stereo unspecified) yielded an IC50 in [7] of 740 nM.

Take `Nc1nc(N)c2nc(CCSc3ccc(C(=O)O)cc3)cnc2n1`: the IC50 in experiment [8] and in experiment [9] was 0.1 µg/mL (≈ 0.292 µM) each time.

Take `COC(=O)c1ccc(SCCc2cnc3nc(N)nc(N)c3n2)cc1`: the IC50 in experiment [10] was 0.4 µg/mL (≈ 1.12 µM); in [9], 0.016 µg/mL (≈ 0.0449 µM).
